Test results reported in patent publication US8546386B2, “Corrosion and microbial control in hydrocarbonaceous compositions” (Dow Global Technologies LLC, priority 2008, dated 2013).

Key:
Type in all cases: cell-based
[1] = tested on: Pseudomonas aeruginosa ATCC#33988; assay: Microbial testing in diesel fuel, plate count
[2] = tested on: Hormoconis resinae ATCC#20495; assay: Microbial testing in diesel fuel, plate count
[3] = tested on: Yarrowia tropicalis ATCC#48138; assay: Microbial testing in diesel fuel, plate count
[4] = tested on: Pseudomonas aeruginosa ATCC#33988; assay: Microbial testing in biodiesel fuel, plate count; conditions: no biocide
[5] = tested on: Hormoconis resinae ATCC#20495; assay: Microbial testing in biodiesel fuel, plate count; conditions: no biocide
[6] = amino alcohol 1500 ppm + FS 135 ppm, Day 0
[7] = amino alcohol 1500 ppm + FS 135 ppm, Wk 1
[8] = amino alcohol 1500 ppm + FS 135 ppm, Wk 2
[9] = amino alcohol 1500 ppm + FS 135 ppm, Wk 3
[10] = amino alcohol 1500 ppm + FS 135 ppm, Wk 4
[11] = amino alcohol 1500 ppm + FS 1000 ppm, Day 0
[12] = amino alcohol 1500 ppm + FS 1000 ppm, Wk 1
[13] = amino alcohol 1500 ppm + FS 1000 ppm, Wk 2
[14] = amino alcohol 1500 ppm + FS 1000 ppm, Wk 3
[15] = amino alcohol 1500 ppm + FS 1000 ppm, Wk 4
[16] = amino alcohol 1500 ppm, no biocide, Day 0
[17] = amino alcohol 1500 ppm, no biocide, Wk 1
[18] = amino alcohol 1500 ppm, no biocide, Wk 2
[19] = amino alcohol 1500 ppm, no biocide, Wk 3
[20] = amino alcohol 1500 ppm, no biocide, Wk 4
[21] = amino alcohol 3000 ppm + FS 135 ppm, Day 0
[22] = amino alcohol 3000 ppm + FS 135 ppm, Wk 1
[23] = amino alcohol 3000 ppm + FS 135 ppm, Wk 2
[24] = amino alcohol 3000 ppm + FS 135 ppm, Wk 3
[25] = amino alcohol 3000 ppm + FS 135 ppm, Wk 4
[26] = amino alcohol 3000 ppm + FS 1000 ppm, Day 0
[27] = amino alcohol 3000 ppm + FS 1000 ppm, Wk 1
[28] = amino alcohol 3000 ppm + FS 1000 ppm, Wk 2
[29] = amino alcohol 3000 ppm + FS 1000 ppm, Wk 3
[30] = amino alcohol 3000 ppm + FS 1000 ppm, Wk 4
[31] = amino alcohol 3000 ppm, no biocide, Day 0
[32] = amino alcohol 3000 ppm, no biocide, Wk 1
[33] = amino alcohol 3000 ppm, no biocide, Wk 2
[34] = amino alcohol 3000 ppm, no biocide, Wk 3
[35] = amino alcohol 3000 ppm, no biocide, Wk 4

## CC(C)(N)CO [AMP, 2-amino-2-methyl-1-propanol]
[1]; [6]
  Ps. aeruginosa organism count: 3.7E6
[1]; [7]
  Ps. aeruginosa organism count: 4.3E5
[1]; [8]
  Ps. aeruginosa organism count: 9.0E4
[1]; [9]
  Ps. aeruginosa organism count: 1.4E4
[1]; [10]
  Ps. aeruginosa organism count: 8.2E3
[1]; [11]
  Ps. aeruginosa organism count: 3.7E6
[1]; [12]
  Ps. aeruginosa organism count: 1.4E2
[1]; [13]
  Ps. aeruginosa organism count: <10
[1]; [14]
  Ps. aeruginosa organism count: <10
[1]; [15]
  Ps. aeruginosa organism count: <10
[1]; [16]
  Ps. aeruginosa organism count: 3.7E6
[1]; [17]
  Ps. aeruginosa organism count: 2.1E6
[1]; [18]
  Ps. aeruginosa organism count: 5.0E6
[1]; [19]
  Ps. aeruginosa organism count: 1.0E6
[1]; [20]
  Ps. aeruginosa organism count: 6.8E6
[1]; [21]
  Ps. aeruginosa organism count: 3.7E6
[1]; [22]
  Ps. aeruginosa organism count: 7.0E5
[1]; [23]
  Ps. aeruginosa organism count: 6.8E4
[1]; [24]
  Ps. aeruginosa organism count: 1.6E4
[1]; [25]
  Ps. aeruginosa organism count: 1.1E4
[1]; [26]
  Ps. aeruginosa organism count: 3.7E6
[1]; [27]
  Ps. aeruginosa organism count: <10
[1]; [28]
  Ps. aeruginosa organism count: <10
[1]; [29]
  Ps. aeruginosa organism count: <10
[1]; [30]
  Ps. aeruginosa organism count: <10
[1]; [31]
  Ps. aeruginosa organism count: 3.7E6
[1]; [32]
  Ps. aeruginosa organism count: 8.6E5
[1]; [33]
  Ps. aeruginosa organism count: 4.0E6
[1]; [34]
  Ps. aeruginosa organism count: 7.8E6
[1]; [35]
  Ps. aeruginosa organism count: 7.2E6
[2]; [6]
  H. resinae organism count: 5.3E5
[2]; [7]
  H. resinae organism count: 6.7E4
[2]; [8]
  H. resinae organism count: 1.3E4
[2]; [9]
  H. resinae organism count: 5.8E3
[2]; [10]
  H. resinae organism count: 4.7E3
[2]; [11]
  H. resinae organism count: 5.3E5
[2]; [12]
  H. resinae organism count: 9.2E2
[2]; [13]
  H. resinae organism count: <10
[2]; [14]
  H. resinae organism count: <10
[2]; [15]
  H. resinae organism count: <10
[2]; [16]
  H. resinae organism count: 5.3E5
[2]; [17]
  H. resinae organism count: 2.0E5
[2]; [18]
  H. resinae organism count: 5.8E5
[2]; [19]
  H. resinae organism count: 8.1E5
[2]; [20]
  H. resinae organism count: 7.2E5
[2]; [21]
  H. resinae organism count: 5.3E5
[2]; [22]
  H. resinae organism count: 5.7E4
[2]; [23]
  H. resinae organism count: 8.6E3
[2]; [24]
  H. resinae organism count: 7.6E3
[2]; [25]
  H. resinae organism count: 5.8E3
[2]; [26]
  H. resinae organism count: 5.3E5
[2]; [27]
  H. resinae organism count: 7.0E3
[2]; [28]
  H. resinae organism count: <10
[2]; [29]
  H. resinae organism count: <10
[2]; [30]
  H. resinae organism count: <10
[2]; [31]
  H. resinae organism count: 5.3E5
[2]; [32]
  H. resinae organism count: 3.6E5
[2]; [33]
  H. resinae organism count: 7.3E5
[2]; [34]
  H. resinae organism count: 1.1E6
[2]; [35]
  H. resinae organism count: 2.3E6
[3]; [6]
  Y. tropicalis organism count: 2.8E5
[3]; [7]
  Y. tropicalis organism count: 8.2E4
[3]; [8]
  Y. tropicalis organism count: 5.6E4
[3]; [9]
  Y. tropicalis organism count: 9.0E3
[3]; [10]
  Y. tropicalis organism count: 5.9E3
[3]; [11]
  Y. tropicalis organism count: 2.8E5
[3]; [12]
  Y. tropicalis organism count: 5.2E2
[3]; [13]
  Y. tropicalis organism count: <10
[3]; [14]
  Y. tropicalis organism count: <10
[3]; [15]
  Y. tropicalis organism count: <10
[3]; [16]
  Y. tropicalis organism count: 2.8E5
[3]; [17]
  Y. tropicalis organism count: 3.4E5
[3]; [18]
  Y. tropicalis organism count: 6.2E5
[3]; [19]
  Y. tropicalis organism count: 8.0E6
[3]; [20]
  Y. tropicalis organism count: 4.3E6
[3]; [21]
  Y. tropicalis organism count: 2.8E5
[3]; [22]
  Y. tropicalis organism count: 5.8E4
[3]; [23]
  Y. tropicalis organism count: 9.4E3
[3]; [24]
  Y. tropicalis organism count: 4.8E3
[3]; [25]
  Y. tropicalis organism count: 5.0E3
[3]; [26]
  Y. tropicalis organism count: 2.8E5
[3]; [27]
  Y. tropicalis organism count: 9.4E2
[3]; [28]
  Y. tropicalis organism count: <10
[3]; [29]
  Y. tropicalis organism count: <10
[3]; [30]
  Y. tropicalis organism count: <10
[3]; [31]
  Y. tropicalis organism count: 2.8E5
[3]; [32]
  Y. tropicalis organism count: 1.6E5
[3]; [33]
  Y. tropicalis organism count: 5.7E5
[3]; [34]
  Y. tropicalis organism count: 6.8E5
[3]; [35]
  Y. tropicalis organism count: 2.0E6

## CCCCCCCC/C=C\CCCCCCCC(=O)O.OCCN(CCO)CCO [TEA/Oleic]
[4]; additive 500 ppm, Week 1
  Bacteria (Ps. aeruginosa) count: 7.30E+04 Bact/ml
[4]; additive 500 ppm, Week 2
  Bacteria (Ps. aeruginosa) count: 5.00E+05 Bact/ml
[4]; additive 500 ppm, Week 3
  Bacteria (Ps. aeruginosa) count: 1.20E+06 Bact/ml
[4]; additive 500 ppm, Week 4
  Bacteria (Ps. aeruginosa) count: 1.10E+06 Bact/ml
[4]; additive 1500 ppm, Week 1
  Bacteria (Ps. aeruginosa) count: 2.00E+03 Bact/ml
[4]; additive 1500 ppm, Week 2
  Bacteria (Ps. aeruginosa) count: 9.00E+04 Bact/ml
[4]; additive 1500 ppm, Week 3
  Bacteria (Ps. aeruginosa) count: 2.20E+05 Bact/ml
[4]; additive 1500 ppm, Week 4
  Bacteria (Ps. aeruginosa) count: 8.30E+04 Bact/ml
[5]; additive 500 ppm, Week 1
  Mold (H. resinae) count: 8.20E+04 Mold/ml
[5]; additive 500 ppm, Week 2
  Mold (H. resinae) count: 3.70E+05 Mold/ml
[5]; additive 500 ppm, Week 3
  Mold (H. resinae) count: 4.30E+05 Mold/ml
[5]; additive 500 ppm, Week 4
  Mold (H. resinae) count: 6.20E+05 Mold/ml
[5]; additive 1500 ppm, Week 1
  Mold (H. resinae) count: 3.70E+02 Mold/ml
[5]; additive 1500 ppm, Week 2
  Mold (H. resinae) count: 1.30E+04 Mold/ml
[5]; additive 1500 ppm, Week 3
  Mold (H. resinae) count: 2.00E+04 Mold/ml
[5]; additive 1500 ppm, Week 4
  Mold (H. resinae) count: 4.70E+03 Mold/ml
